Measurements as given in US20170266166A1, “Compositions and Methods to Inhibit Estrogen Receptor Beta for the Treatment of Renal Cell Carcinoma” (University of Rochester, priority 2014, published 2017).

Legend:
[1] = tested on: 786-O tumors; experiment: anti-estrogen treatment of mice carrying 786-O RCC tumors (IVIS imaging, tumor weight, metastasis); type: in vivo; details: for mice that developed distal metastasis: ip injection every other day, after 4 weeks of treatments, 3 of the 6 DMSO treated mice developed metastasis; for RCC tumor growth and metastasis (IVIS imaging, tumor weights): mouse RCC model, result in words
Excerpt: Results of IVIS imaging, tumor size, and tumor weights are shown and compared.
The Fe-NTA transformed human renal carcinoma cell lines 7860.sh-ERβ/7860.sh-Luc and A498 hERβ/Vec were directly injected into the renal capsule of nude mice. After anesthesia, the back skin was lifted with a pair of blunt forceps and cut along the midline with a pair of scissors creating an incision approximately an inch in length; the dermis was separated from the underlying body wall on both sides of the incision for bilateral grafting or on one side only (blunt dissection). The animal was placed on its side, and the location of the kidney identified by viewing it through the body wall. A small incision ([…]) was made in the body wall just slightly longer than the long axis of the kidney. The exteriorized kidney was allowed to rest on the body wall. We used a syringe to inject the cells at the cell numbers of 1×10^6, both with matrigel (1:1) under the renal capsule.
ERβ antagonists, PHTPP and ICI, inhibit RCC cell growth and cell invasion Knockdown of ERβ reduced RCC cells growth and Invasion. It was then investigated whether PHTPP (ERβ selective antagonist) and ICI 182,780 (ICI, anti-estrogen) have therapeutic effects to reduce RCC tumor growth and metastasis in vivo. […] Also, both anti-estrogens have been used to treat mouse breast cancer models. The same doses of PHTPP and ICI were applied in mice carrying 786-O tumors DMSO (mock control), PHTPP and ICI were administrated via intraperitoneal (ip) injection every other day. IVIS imaging was applied to monitor tumor growth and distal metastasis. After 4 weeks of treatments, mice were sacrificed for tumor analysis. […] All the mice had developed RCC by the time they were sacrificed. […] In addition to PHTPP and ICI, tamoxifen was also tested on mouse RCC growth.

[2] = target: ERβ (Homo sapiens, UniProt Q92731); details: 10 μM, previous reports; cited from earlier work
Chain of ERβ (Q92731 whole entry): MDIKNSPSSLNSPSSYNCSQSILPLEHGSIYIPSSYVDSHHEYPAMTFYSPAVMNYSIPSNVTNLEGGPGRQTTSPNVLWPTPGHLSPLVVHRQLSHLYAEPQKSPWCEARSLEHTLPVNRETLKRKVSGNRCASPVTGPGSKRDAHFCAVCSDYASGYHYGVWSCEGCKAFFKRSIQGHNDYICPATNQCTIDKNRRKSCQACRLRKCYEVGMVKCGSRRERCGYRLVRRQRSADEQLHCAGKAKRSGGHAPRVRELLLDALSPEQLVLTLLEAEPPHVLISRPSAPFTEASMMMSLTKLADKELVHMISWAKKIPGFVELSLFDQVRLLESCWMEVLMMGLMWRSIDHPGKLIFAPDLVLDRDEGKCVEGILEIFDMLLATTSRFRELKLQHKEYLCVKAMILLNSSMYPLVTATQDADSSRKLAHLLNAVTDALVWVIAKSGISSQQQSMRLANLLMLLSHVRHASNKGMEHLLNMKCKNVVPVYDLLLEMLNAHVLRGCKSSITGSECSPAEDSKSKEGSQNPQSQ

[3] = tested on: 786-O cells; experiment: transwell RCC cell migration assay; type: cell-based, human; details: for cell migration: 10 nM
[4] = tested on: 786-O cells; experiment: RCC cell growth, MTT assay; type: cell-based, human; details: 10 nM, 786-O (high endogenous ERβ), MTT and colony forming assays
Protocol: (§1) FIG. 2, comprising FIGS. 2A-2F, depicts the results of experiments comparing ERβ expression in RCC cell lines and estrogen/ERβ effects on RCC cell growth. […] Expression of ERα was not detected in tested RCC cells. ERβ has the highest expression level in 786-O and lowest in A498. Breast cancer cell MCF-7 was used as a positive control. […] The growth rate of 786-O cells (with high endogenous ERβ) is increased in the presence of 17β-estradiol (10 nM) as compared with the control Etoh). […] FIGS. 2D-2E show changes in ERβ expression levels can affect the RCC cell growth. A lentivirus system was used to knock-down ERβ in RCC 786-O cells (by lenti-ERβ-shRNA), or to increase ERβ in A498 cells (by lenti-ERβ cDNA). Cell growth rates were determined by MTT assay.
(§2) RCC cells were seeded in 24-well plates (5000 cells/200 μl medium per well) and cultured for 0, 2, 4 and 6 days. Cells were harvested and cell number was calculated using MTT agent.
(§3) To examine the ERβ roles on RCC cell growth, the lentiviral ERβ cDNA and shRNA were used to change the expression of ERβ in 2 RCC cell lines, A498 (low endogenous ERβ) and 786-O (high endogenous ERβ), respectively. 10 nM […] estradiol (E2) was used to activate ERβ and examine the growth changes using MTT assay and colony forming assays. […] Supportively, knocking-down ERβ by ERβ-siRNA in RCC 786-O cells suppressed cell growth, sh-Luciferase as control (FIG. 2D). […]

[5] = tested on: A498 cells; experiment: RCC cell growth, MTT assay; type: cell-based, human; details: 10 nM, A498 (little ERβ)
Protocol: as §1, §2, §3

[6] = tested on: A498 cells; experiment: transwell RCC cell migration assay; type: cell-based, human
[7] = tested on: pSMAD3; experiment: Western blot after TGFβR-1 inhibitor treatment; type: cell-based, human; details: after treatment of TGFβR-1 inhibitor, FIG. 5D
Protocol: FIG. 5E illustrates the experimental setting for treatment of RCC with TGFβR-1 inhibitor and migration. RCC cells were cultured for 48 hr and then treated with 10 μM TGFβR-1 inhibitor for 6 hr. RCC cells were then trypsinized and seeded in the upper transwell (5×10^4/well) for 24 hr to determine the migration rate. […] Quantification of migrated cells was shown on the right panel.
The expressions of ERs were determined by the Western blot according to the previous study (Hsu et al., Carcinogenesis, 2014, 35:651-61). Rabbit anti-ERβ polyclonal antibody (GTX 110607 GeneTex Corporation), mouse anti-GAPDH monoclonal antibody (Santa Cruz Biotechnology), rabbit anti-TGFB1 polyclonal antibody (Abcam Biotechnology), and mouse anti-SMAD3 monoclonal antibody (Abcam Biotechnology) were all used and all at 1:1,000 dilution in blocking buffer. The immunopositive bands were visualized with an ECL chemiluminescent detection system (Thermo Scientific, Rockford, Ill.), and the images were transferred to the Bio-rad imaging system. The Western analysis was scored positive if the band of interest was present at the expected molecular weight appropriate for each marker protein. All analyses were done in duplicate.
(§4) To further validate the ERβ→TGFβ1→pSMAD3 pathway, an interruption approach was applied by using TGFβR-1 inhibitors (10 μM) for the cell invasion assay in both 786-O and A498 cells (FIG. 5D).

[8] = tested on: 786-O cells; experiment: transwell matrigel RCC cell invasion assay; type: cell-based, human; details: 10 μM
Protocol: (§5) The migration or invasion capability of RCC cells was determined using the transwell assay. In brief, 1×105 (invasion)/2-5×104 (migration) cells were harvested and seeded with serum-free media into the upper chamber with or without coated Matrigel with (BD Corning). The migrated or invaded cells were fixed by 4% paraformaldehyde and stained with 1% toluidine blue. Cell numbers were counted in five randomly chosen microscopic fields (100×) per membrane. When necessary, cells were treated with 10 μM of TGFβR-1 inhibitor (SB525334 Selleckchem) for 48 hr.
as §4

[9] = tested on: A498 cells; experiment: transwell matrigel RCC cell invasion assay; type: cell-based, human; details: 10 μM
Protocol: as §5, §4

[10] = tested on: advanced RCC; details: 1990's clinical trials; cited from earlier work
[11] = mice carrying 786-O tumors, ip every other day, 4 weeks

Structure (SMILES): Oc1ccc(-c2c(-c3ccccc3)nn3c(C(F)(F)F)cc(C(F)(F)F)nc23)cc1 [PHTPP]
- body weights versus control [1, 11]: higher body weights than control
- signs of toxicity or adverse treatment side effects [1, 11]: without any signs of toxicity or adverse treatment side effects
- mice that developed distal metastasis ([1]; mice carrying 786-O tumors): around 17%
- RCC tumor growth and metastasis (IVIS imaging, tumor weights) ([1]; in vivo): inhibit the RCC tumor growth and metastasis
- estrogen induced ERβ transactivation on EREluciferase reporter activity [2]: effectively inhibit

Structure (SMILES): C[C@]12CC[C@@H]3c4ccc(O)cc4CC[C@H]3[C@@H]1CC[C@@H]2O [E2, 17β-estradiol]
- cell migration ([3]; 786-O sh-Luc control cells): could enhance
- cell migration ([3]; ERβ knockdown 786-O cells (786-O-shERβ)): little effect
- cell growth [4]: significantly enhanced the cell growth
- cell growth [5]: little E2 stimulating effect
- cell migration ([6]; 10 nM, A498-ERβ cells): further stimulated the migration

Structure (SMILES): Cc1cccc(-c2[nH]c(C(C)(C)C)nc2-c2ccc3nccnc3c2)n1 [TGFβR-1 inhibitor]
- migration ability ([3]; 10 μM for 48 hr, 786-O sh-Luc (higher ERβ)): dramatically attenuated
- migration ability ([6]; 10 μM for 48 hr, A498 ERβ (higher ERβ)): dramatically attenuated
- pSMAD3 level by Western blot [7]: reduced pSMAD3
- ERβ-enhanced invasion [8]: suppression of ERβ-enhanced invasion
- ERβ-enhanced invasion [9]: suppression of ERβ-enhanced invasion

Structure (SMILES): CC/C(=C(\c1ccccc1)c1ccc(OCCN(C)C)cc1)c1ccccc1 [tamoxifen]
- inhibition of tumor size compared to the control group ([1]; RCC in vivo, FIG. 9): about 40%
- efficacy to inhibit ERβ activity ([1]; compared to ICI 182,780 and PHTPP, FIG. 9): ~40%
- RCC tumor growth and metastasis (IVIS imaging, tumor weights) ([1]; in vivo): less effective on inhibiting RCC tumor
- therapeutic efficacy in advanced RCC [10]: no significant therapeutic efficacy

Structure (SMILES): C[C@]12CC[C@@H]3c4ccc(O)cc4C[C@@H](CCCCCCCCC[S+]([O-])CCCC(F)(F)C(F)(F)F)[C@H]3[C@@H]1CC[C@@H]2O (stereo partly drawn) [ICI 182,780, 7α-[9-(4,4,5,5,5-pentafluoropentylsulfinyl)nonyl]estra-1,3,5(10)-triene-3,17β-diol]
- body weights versus control [1, 11]: higher body weights than control
- mice that developed distal metastasis ([1]; mice carrying 786-O tumors): around 17%
- RCC tumor growth and metastasis (IVIS imaging, tumor weights) ([1]; in vivo): inhibit the RCC tumor growth and metastasis
- signs of toxicity or adverse treatment side effects ([1]; mouse, in vivo, ip): without any signs of toxicity or adverse treatment side effects
- estrogen induced ERβ transactivation on EREluciferase reporter activity [2]: effectively inhibit
